Measurements as given in patent US20260201008A1, “SECRETIN-DERIVED GLP1R SELECTIVE AGONISTS” (GUBRA A/S, priority 2023, published 2026).
Like-named read-outs stand apart in the source and are kept apart here. Numbered stars: 1 amine (or outer) side, 2 acyl side, 3 side chain; on linkers, the order of the positions; unused ones are H or OH. Square brackets hold non-standard residues; d marks the D form. Side chains are listed from the residue outwards. Peptide text beside a SMILES is read from it. * marks the point of attachment. C20 diacid = O=C(O)CCCCCCCCCCCCCCCCCCC(=O)*; γGlu = O=C(O)[C@H](CCC(=O)[*:2])N[*:1]; AEEA = NCCOCCOCC(=O)O; Aib = CC(C)(N)C(=O)O

How the values were obtained:
[1] = Fibril formation of crude library peptides (Thioflavin T); assay type: physicochemical; parameters: key: average ThT fluorescence emission at 480 nm (ex 450 nm), raw units; conditions: Physical stability of peptides
Outline: (§1)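 Turbidity is the absorbance at 600 nm, taken before heating. Fibril signal is the mean ThT emission at 480 nm (450 nm excitation), read every 10 min over 72 h at 40° C with 700 rpm shaking between reads. Peptides at 267 μM, pH 4.0 acetate or pH 7.0 phosphate buffer (50 mM), 4 μM ThT final.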

SCTR = SCTR (Homo sapiens, UniProt P47872); experiment: hSCTR potency, cAMP accumulation in CHO-K1 cells stably overexpressing hSCTR; assay type: cell-based; parameters: alternatively Euroscreen ES-712-AF; FAST-0161L; host or cells: CHO-K1; conditions: cAMP accumulation, CHO-K1 cells overexpressing hSCTR
SCTR, sequence (P47872 23-440): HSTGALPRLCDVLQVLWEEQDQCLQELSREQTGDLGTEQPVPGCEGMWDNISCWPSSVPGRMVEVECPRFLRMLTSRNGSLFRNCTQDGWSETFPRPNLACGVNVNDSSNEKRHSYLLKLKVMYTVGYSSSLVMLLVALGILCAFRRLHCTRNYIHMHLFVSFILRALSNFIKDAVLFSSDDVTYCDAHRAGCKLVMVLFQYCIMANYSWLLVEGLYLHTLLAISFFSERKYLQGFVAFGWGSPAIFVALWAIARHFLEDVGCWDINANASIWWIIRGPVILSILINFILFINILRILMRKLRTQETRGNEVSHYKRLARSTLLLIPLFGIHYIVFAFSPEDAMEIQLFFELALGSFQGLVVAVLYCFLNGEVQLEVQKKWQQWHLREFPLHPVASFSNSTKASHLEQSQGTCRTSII
Outline: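 EC50 derived from variable-slope nonlinear regression on 11-point, 3-fold series run in duplicate (crude peptides: 5 points, 10-fold, n=1). Compound stimulation lasted 30 min at room temperature in casein/IBMX-containing DPBS (0.05%, 0.5 mM), 2000 cells/well; cAMP detected by time-resolved FRET after one hour.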

GLP1R = GLP1R (Homo sapiens, UniProt P43220); experiment: hGLP1R potency, cAMP accumulation in CHO-K1 cells stably overexpressing hGLP1R; assay type: cell-based; parameters: host or cells: CHO-K1; conditions: for Selectivity: SCTR EC50/GLP1R EC50 ratio; for EC50: cAMP accumulation, CHO-K1 cells overexpressing hGLP1R; for SCTR EC50/GLP1R EC50 ratio: selectivity for hGLP1R over hSCTR, cAMP accumulation in CHO-K1 cells
GLP1R, sequence (P43220 24-463): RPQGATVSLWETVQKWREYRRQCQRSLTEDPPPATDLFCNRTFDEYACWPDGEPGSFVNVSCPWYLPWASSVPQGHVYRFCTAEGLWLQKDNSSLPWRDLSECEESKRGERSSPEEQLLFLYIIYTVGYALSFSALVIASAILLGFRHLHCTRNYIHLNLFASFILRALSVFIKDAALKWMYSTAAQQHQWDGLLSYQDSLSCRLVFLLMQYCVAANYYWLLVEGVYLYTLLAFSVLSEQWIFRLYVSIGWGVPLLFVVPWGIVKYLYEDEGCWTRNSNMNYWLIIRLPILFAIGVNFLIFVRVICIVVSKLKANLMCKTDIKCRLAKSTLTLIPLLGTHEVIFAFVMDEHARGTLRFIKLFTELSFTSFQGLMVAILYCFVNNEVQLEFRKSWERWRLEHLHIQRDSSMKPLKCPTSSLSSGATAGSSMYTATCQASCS
Outline: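 EC50 derives from variable-slope nonlinear regression of cAMP HTRF signal, with purified peptides tested as 11 three-fold dilutions in duplicate. Assay: hGLP1R-overexpressing CHO-K1 cells, 0.5 mM IBMX, 0.05% casein in DPBS, 30 min room-temperature stimulation, GLP-1(7-36) as reference agonist.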

[2] = Turbidity of crude library peptides (absorbance at 600 nm); assay type: physicochemical; conditions: Physical stability of peptides
Outline: as §1

[3] = read-out: pEC50 hSCTR (converted)
[4] = read-out: pEC50 hGLPR1 (converted)
[5] = read-out: hSCTR pEC50 (converted)
[6] = read-out: hGLP1R pEC50 (converted)

Row | Structure (SMILES) | Fibril formation [1] | EC50 (SCTR; [3]) [nM] | Selectivity (GLP1R) | EC50 (GLP1R; [4]) [nM] | Turbidity (pH 7) [2] | EC50 (SCTR; [5]) [nM] | EC50 (GLP1R; [6]) [nM] | SCTR EC50/GLP1R EC50 ratio (GLP1R)
1 | CC(C)C[C@H](NC(=O)[C@H](Cc1ccccc1)NC(=O)[C@H](CCCNC(=N)N)NC(=O)[C@H](CCC(N)=O)NC(=O)[C@@H](NC(=O)[C@H](C)NC(=O)[C@H](C)NC(=O)[C@H](CCC(=O)O)NC(=O)[C@H](CCC(=O)O)NC(=O)[C@H](CCCCNC(=O)COCCOCCNC(=O)COCCOCCNC(=O)CC[C@H](NC(=O)CCCCCCCCCCCCCCCCCCC(=O)O)C(=O)O)NC(=O)[C@H](CC(C)C)NC(=O)[C@H](CCC(=O)O)NC(=O)[C@H](CO)NC(=O)[C@@H](NC(=O)[C@H](CC(=O)O)NC(=O)[C@H](CO)NC(=O)[C@@H](NC(=O)[C@H](Cc1ccccc1)NC(=O)[C@@H](NC(=O)CNC(=O)[C@H](CCC(=O)O)NC(=O)C(C)(C)NC(=O)[C@@H](N)Cc1c[nH]cn1)[C@@H](C)O)[C@@H](C)O)C(C)C)[C@@H](C)O)C(=O)N[C@@H](CCC(=O)O)C(=O)N[C@@H](Cc1c[nH]cn1)C(=O)N[C@@H](CC(C)C)C(=O)N[C@H](C(N)=O)C(C)C [compound 55] (H-H[Aib]EGTFTSDVSELK([AEEA-AEEA-γGlu-C20 diacid])EEAATQRFLEHLV-NH2) | 6162 | 158 | 16315 | 0.01 | 0.09 | – | – | –
2 | CC(C)C[C@H](NC(=O)[C@H](Cc1ccccc1)NC(=O)[C@H](CCCNC(=N)N)NC(=O)[C@H](CCC(N)=O)NC(=O)[C@H](CCC(=O)O)NC(=O)[C@H](C)NC(=O)[C@H](C)NC(=O)C(C)(C)NC(=O)[C@H](CCC(=O)O)NC(=O)[C@H](CCCCNC(=O)COCCOCCNC(=O)COCCOCCNC(=O)CC[C@H](NC(=O)CCCCCCCCCCCCCCCCCCC(=O)O)C(=O)O)NC(=O)[C@H](CC(C)C)NC(=O)[C@H](CCC(=O)O)NC(=O)[C@H](CO)NC(=O)[C@@H](NC(=O)[C@H](CC(=O)O)NC(=O)[C@H](CO)NC(=O)[C@@H](NC(=O)[C@H](Cc1ccccc1)NC(=O)[C@@H](NC(=O)CNC(=O)[C@H](CCC(=O)O)NC(=O)C(C)(C)NC(=O)[C@@H](N)Cc1c[nH]cn1)[C@@H](C)O)[C@@H](C)O)C(C)C)C(=O)N[C@@H](CCC(=O)O)C(=O)N[C@@H](Cc1c[nH]cn1)C(=O)N[C@@H](CC(C)C)C(=O)N[C@H](C(N)=O)C(C)C [compound 18] (H-H[Aib]EGTFTSDVSELK([AEEA-AEEA-γGlu-C20 diacid])E[Aib]AAEQRFLEHLV-NH2) | 12140 | 501 | 16263 | 0.0316 | 0.09 | – | – | –
3 | CC(C)C[C@H](NC(=O)[C@H](Cc1ccccc1)NC(=O)[C@H](CCCNC(=N)N)NC(=O)[C@H](CCC(N)=O)NC(=O)[C@H](C)NC(=O)[C@H](C)NC(=O)[C@H](C)NC(=O)[C@H](Cc1ccccc1)NC(=O)[C@H](CCC(=O)O)NC(=O)[C@H](CCCCNC(=O)COCCOCCNC(=O)COCCOCCNC(=O)CC[C@H](NC(=O)CCCCCCCCCCCCCCCCCCC(=O)O)C(=O)O)NC(=O)[C@H](CC(C)C)NC(=O)[C@@H](NC(=O)[C@H](CO)NC(=O)[C@@H](NC(=O)[C@H](CC(=O)O)NC(=O)[C@H](CO)NC(=O)[C@@H](NC(=O)[C@H](Cc1ccccc1)NC(=O)[C@@H](NC(=O)CNC(=O)[C@H](CCC(=O)O)NC(=O)C(C)(C)NC(=O)[C@@H](N)Cc1c[nH]cn1)[C@@H](C)O)[C@@H](C)O)C(C)C)C(C)C)C(=O)N[C@@H](CCC(=O)O)C(=O)N[C@@H](Cc1c[nH]cn1)C(=O)N[C@@H](CC(C)C)C(=O)N[C@H](C(N)=O)C(C)C [compound 29] (H-H[Aib]EGTFTSDVSVLK([AEEA-AEEA-γGlu-C20 diacid])EFAAAQRFLEHLV-NH2) | 28786 | 794 | 8541 | 0.1 | 0.08 | – | – | –
4 | CC(C)C[C@H](NC(=O)[C@H](Cc1ccccc1)NC(=O)[C@H](CCCNC(=N)N)NC(=O)[C@H](CCC(N)=O)NC(=O)[C@H](CCC(=O)O)NC(=O)[C@H](C)NC(=O)[C@H](C)NC(=O)[C@@H](NC(=O)[C@H](CCC(=O)O)NC(=O)[C@H](CCCCNC(=O)COCCOCCNC(=O)COCCOCCNC(=O)CC[C@H](NC(=O)CCCCCCCCCCCCCCCCCCC(=O)O)C(=O)O)NC(=O)[C@H](CC(C)C)NC(=O)[C@@H](NC(=O)[C@H](CO)NC(=O)[C@@H](NC(=O)[C@H](CC(=O)O)NC(=O)[C@H](CO)NC(=O)[C@@H](NC(=O)[C@H](Cc1ccccc1)NC(=O)[C@@H](NC(=O)CNC(=O)[C@H](CCC(=O)O)NC(=O)C(C)(C)NC(=O)[C@@H](N)Cc1c[nH]cn1)[C@@H](C)O)[C@@H](C)O)C(C)C)[C@@H](C)O)[C@@H](C)O)C(=O)N[C@@H](CCC(=O)O)C(=O)N[C@@H](Cc1c[nH]cn1)C(=O)N[C@@H](CC(C)C)C(=O)N[C@H](C(N)=O)C(C)C [compound 42] (H-H[Aib]EGTFTSDVSTLK([AEEA-AEEA-γGlu-C20 diacid])ETAAEQRFLEHLV-NH2) | 6253 | 3160 | 209363 | 0.0158 | 0.08 | – | – | –

The remaining lines, values ahead:

Row | Fibril formation [1] | EC50 (SCTR; [3]) [nM] | Selectivity (GLP1R) | EC50 (GLP1R; [4]) [nM] | Turbidity (pH 7) [2] | EC50 (SCTR; [5]) [nM] | EC50 (GLP1R; [6]) [nM] | SCTR EC50/GLP1R EC50 ratio (GLP1R) | Structure (SMILES)
5 | 3107 | – | – | – | 0.08 | 3980 | 0.0158 | 203892 | CC(C)C[C@H](NC(=O)[C@H](Cc1ccccc1)NC(=O)[C@H](CCCNC(=N)N)NC(=O)[C@H](CCC(N)=O)NC(=O)CNC(=O)C(C)(C)NC(=O)[C@H](C)NC(=O)[C@H](CCC(=O)O)NC(=O)[C@H](CCC(=O)O)NC(=O)[C@H](CCCCNC(=O)COCCOCCNC(=O)COCCOCCNC(=O)CC[C@H](NC(=O)CCCCCCCCCCCCCCCCCCC(=O)O)C(=O)O)NC(=O)[C@H](CC(C)C)NC(=O)[C@H](Cc1ccc(O)cc1)NC(=O)[C@H](CO)NC(=O)[C@@H](NC(=O)[C@H](CC(=O)O)NC(=O)[C@H](CO)NC(=O)[C@@H](NC(=O)[C@H](Cc1ccccc1)NC(=O)[C@@H](NC(=O)CNC(=O)[C@H](CCC(=O)O)NC(=O)C(C)(C)NC(=O)[C@@H](N)Cc1c[nH]cn1)[C@@H](C)O)[C@@H](C)O)C(C)C)C(=O)N[C@@H](CCC(=O)O)C(=O)N[C@@H](Cc1c[nH]cn1)C(=O)N[C@@H](CC(C)C)C(=O)N[C@H](C(N)=O)C(C)C [compound 154] (H-H[Aib]EGTFTSDVSYLK([AEEA-AEEA-γGlu-C20 diacid])EEA[Aib]GQRFLEHLV-NH2)
6 | 5426 | – | – | – | 0.08 | 25100 | 0.794 | 34730 | CC(C)C[C@H](NC(=O)[C@H](Cc1ccccc1)NC(=O)[C@H](CCCNC(=N)N)NC(=O)[C@H](CCC(N)=O)NC(=O)[C@H](CC(C)C)NC(=O)C(C)(C)NC(=O)[C@H](C)NC(=O)[C@H](CCC(=O)O)NC(=O)[C@H](CCC(=O)O)NC(=O)[C@H](CCCCNC(=O)COCCOCCNC(=O)COCCOCCNC(=O)CC[C@H](NC(=O)CCCCCCCCCCCCCCCCCCC(=O)O)C(=O)O)NC(=O)[C@H](CC(C)C)NC(=O)[C@H](Cc1ccc(O)cc1)NC(=O)[C@H](CO)NC(=O)[C@@H](NC(=O)[C@H](CC(=O)O)NC(=O)[C@H](CO)NC(=O)[C@@H](NC(=O)[C@H](Cc1ccccc1)NC(=O)[C@@H](NC(=O)CNC(=O)[C@H](Cc1ccc(O)cc1)NC(=O)C(C)(C)NC(=O)[C@@H](N)Cc1c[nH]cn1)[C@@H](C)O)[C@@H](C)O)C(C)C)C(=O)N[C@@H](CCC(=O)O)C(=O)N[C@@H](Cc1c[nH]cn1)C(=O)N[C@@H](CC(C)C)C(=O)N[C@H](C(N)=O)C(C)C [compound 159] (H-H[Aib]YGTFTSDVSYLK([AEEA-AEEA-γGlu-C20 diacid])EEA[Aib]LQRFLEHLV-NH2)
